From PubChem BioAssay (NCI)
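A five-concentration, 48-hour dose response in 96-well plates underlies each endpoint, interpolated linearly between surrounding concentrations. TGI marks complete inhibition of growth.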

What was measured:
Assay in all cases: NCI anticancer screen, dose series, 48 h
786-0 renal = test system: 786-0 renal
A498 renal = test system: A498 renal
A549 NSCLC = test system: A549 NSCLC
ACHN renal = test system: ACHN renal
CCRF-CEM leukemia = test system: CCRF-CEM leukemia
COLO 205 colon = test system: COLO 205 colon
DLD-1 colon = test system: DLD-1 colon
DMS 114 small cell lung = test system: DMS 114 small cell lung
DMS 273 small cell lung = test system: DMS 273 small cell lung
EKVX NSCLC = test system: EKVX NSCLC
HCC-2998 colon = test system: HCC-2998 colon
HCT-116 colon = test system: HCT-116 colon
HCT-15 colon = test system: HCT-15 colon
HL-60(TB) leukemia = test system: HL-60(TB) leukemia
HOP-18 NSCLC = test system: HOP-18 NSCLC
HOP-62 NSCLC = test system: HOP-62 NSCLC
HOP-92 NSCLC = test system: HOP-92 NSCLC
HT29 colon = test system: HT29 colon
IGROV1 ovarian = test system: IGROV1 ovarian
K-562 leukemia = test system: K-562 leukemia
KM12 colon = test system: KM12 colon
KM20L2 colon = test system: KM20L2 colon
LOX IMVI melanoma = test system: LOX IMVI melanoma
LXFL 529 NSCLC = test system: LXFL 529 NSCLC
M14 melanoma = test system: M14 melanoma
M19-MEL melanoma = test system: M19-MEL melanoma
MALME-3M melanoma = test system: MALME-3M melanoma
MOLT-4 leukemia = test system: MOLT-4 leukemia
NCI-H226 lung = test system: NCI-H226 lung
NCI-H23 lung = test system: NCI-H23 lung
NCI-H460 lung = test system: NCI-H460 lung
NCI-H522 lung = test system: NCI-H522 lung
OVCAR-3 ovarian = test system: OVCAR-3 ovarian
OVCAR-4 ovarian = test system: OVCAR-4 ovarian
OVCAR-5 ovarian = test system: OVCAR-5 ovarian
OVCAR-8 ovarian = test system: OVCAR-8 ovarian
RPMI-8226 leukemia = test system: RPMI-8226 leukemia
RXF 393 renal = test system: RXF 393 renal
SF-268 CNS = test system: SF-268 CNS
SF-295 CNS = test system: SF-295 CNS
SF-539 CNS = test system: SF-539 CNS
SK-MEL-2 melanoma = test system: SK-MEL-2 melanoma
SK-MEL-28 melanoma = test system: SK-MEL-28 melanoma
SK-MEL-5 melanoma = test system: SK-MEL-5 melanoma
SK-OV-3 ovarian = test system: SK-OV-3 ovarian
SN12C renal = test system: SN12C renal
SNB-19 CNS = test system: SNB-19 CNS
SNB-75 CNS = test system: SNB-75 CNS
SNB-78 CNS = test system: SNB-78 CNS
SR leukemia = test system: SR leukemia
SW-620 colon = test system: SW-620 colon
TK-10 renal = test system: TK-10 renal
U251 CNS = test system: U251 CNS
UACC-257 melanoma = test system: UACC-257 melanoma
UACC-62 melanoma = test system: UACC-62 melanoma
UO-31 renal = test system: UO-31 renal
XF 498 CNS = test system: XF 498 CNS
CAKI-1 renal = test system: CAKI-1 renal

## CCCCc1c2c(nc3c1CCCC3=O)C(=O)CCC2
786-0 renal
  TGI: > 100 µM
A498 renal
  TGI: > 100 µM
A549 NSCLC
  TGI: > 100 µM
ACHN renal
  TGI: > 100 µM
CCRF-CEM leukemia
  TGI: > 100 µM
COLO 205 colon
  TGI: > 100 µM
DLD-1 colon
  TGI: > 100 µM
DMS 114 small cell lung
  TGI: > 100 µM
DMS 273 small cell lung
  TGI: > 100 µM
EKVX NSCLC
  TGI: > 100 µM
HCC-2998 colon
  TGI: > 100 µM
HCT-116 colon
  TGI: > 100 µM
HCT-15 colon
  TGI: > 100 µM
HL-60(TB) leukemia
  TGI: > 100 µM
HOP-18 NSCLC
  TGI: > 100 µM
HOP-62 NSCLC
  TGI: > 100 µM
HOP-92 NSCLC
  TGI: > 100 µM
HT29 colon
  TGI: > 100 µM
IGROV1 ovarian
  TGI: > 100 µM
K-562 leukemia
  TGI: > 100 µM
KM12 colon
  TGI: > 100 µM
KM20L2 colon
  TGI: > 100 µM
LOX IMVI melanoma
  TGI: > 100 µM
LXFL 529 NSCLC
  TGI: > 100 µM
M14 melanoma
  TGI: > 100 µM
M19-MEL melanoma
  TGI: > 100 µM
MALME-3M melanoma
  TGI: > 100 µM
MOLT-4 leukemia
  TGI: > 100 µM
NCI-H226 lung
  TGI: > 100 µM
NCI-H23 lung
  TGI: > 100 µM
NCI-H460 lung
  TGI: > 100 µM
NCI-H522 lung
  TGI: > 100 µM
OVCAR-3 ovarian
  TGI: > 100 µM
OVCAR-4 ovarian
  TGI: > 100 µM
OVCAR-5 ovarian
  TGI: > 100 µM
OVCAR-8 ovarian
  TGI: > 100 µM
RPMI-8226 leukemia
  TGI: > 100 µM
RXF 393 renal
  TGI: > 100 µM
SF-268 CNS
  TGI: > 100 µM
SF-295 CNS
  TGI: > 100 µM
SF-539 CNS
  TGI: > 100 µM
SK-MEL-2 melanoma
  TGI: > 100 µM
SK-MEL-28 melanoma
  TGI: > 100 µM
SK-MEL-5 melanoma
  TGI: > 100 µM
SK-OV-3 ovarian
  TGI: > 100 µM
SN12C renal
  TGI: > 100 µM
SNB-19 CNS
  TGI: > 100 µM
SNB-75 CNS
  TGI: > 100 µM
SNB-78 CNS
  TGI: > 100 µM
SR leukemia
  TGI: > 100 µM
SW-620 colon
  TGI: > 100 µM
TK-10 renal
  TGI: > 100 µM
U251 CNS
  TGI: > 100 µM
UACC-257 melanoma
  TGI: > 100 µM
UACC-62 melanoma
  TGI: > 100 µM
UO-31 renal
  TGI: > 100 µM
XF 498 CNS
  TGI: > 100 µM

## COc1nc(NC2OC(COC(C)=O)C(OC(C)=O)C(OC(C)=O)C2OC(C)=O)c2c(OC(C)=O)c(C)c(=O)oc2n1 (stereo not given)
786-0 renal
  TGI: > 100 µM
A498 renal
  TGI: 3.18 µM
A549 NSCLC
  TGI: > 100 µM
ACHN renal
  TGI: 3.16 µM
CAKI-1 renal
  TGI: > 100 µM
CCRF-CEM leukemia
  TGI: > 100 µM
COLO 205 colon
  TGI: > 100 µM
DLD-1 colon
  TGI: > 100 µM
DMS 114 small cell lung
  TGI: > 100 µM
EKVX NSCLC
  TGI: > 100 µM
HCC-2998 colon
  TGI: > 100 µM
HCT-116 colon
  TGI: > 100 µM
HCT-15 colon
  TGI: > 100 µM
HL-60(TB) leukemia
  TGI: > 100 µM
HOP-18 NSCLC
  TGI: > 100 µM
HOP-62 NSCLC
  TGI: > 100 µM
HOP-92 NSCLC
  TGI: > 100 µM
HT29 colon
  TGI: > 100 µM
IGROV1 ovarian
  TGI: > 100 µM
K-562 leukemia
  TGI: > 100 µM
KM12 colon
  TGI: > 100 µM
KM20L2 colon
  TGI: > 100 µM
LOX IMVI melanoma
  TGI: > 100 µM
LXFL 529 NSCLC
  TGI: > 100 µM
M14 melanoma
  TGI: > 100 µM
M19-MEL melanoma
  TGI: > 100 µM
MALME-3M melanoma
  TGI: > 100 µM
MOLT-4 leukemia
  TGI: > 100 µM
NCI-H226 lung
  TGI: > 100 µM
NCI-H23 lung
  TGI: > 100 µM
NCI-H460 lung
  TGI: 3.15 µM
OVCAR-3 ovarian
  TGI: > 100 µM
OVCAR-4 ovarian
  TGI: > 100 µM
OVCAR-5 ovarian
  TGI: > 100 µM
OVCAR-8 ovarian
  TGI: > 100 µM
RPMI-8226 leukemia
  TGI: > 100 µM
RXF 393 renal
  TGI: > 100 µM
SF-295 CNS
  TGI: > 100 µM
SF-539 CNS
  TGI: > 100 µM
SK-MEL-2 melanoma
  TGI: > 100 µM
SK-MEL-5 melanoma
  TGI: > 100 µM
SK-OV-3 ovarian
  TGI: > 100 µM
SN12C renal
  TGI: > 100 µM
SNB-19 CNS
  TGI: > 100 µM
SNB-75 CNS
  TGI: > 100 µM
SNB-78 CNS
  TGI: > 100 µM
SW-620 colon
  TGI: > 100 µM
TK-10 renal
  TGI: > 100 µM
U251 CNS
  TGI: > 100 µM
UACC-257 melanoma
  TGI: > 100 µM
UACC-62 melanoma
  TGI: > 100 µM
UO-31 renal
  TGI: > 100 µM
XF 498 CNS
  TGI: > 100 µM

## CCN1C(=O)N(C)C(O)c2c1nc1ccccn1c2=O (stereo not given)
786-0 renal
  TGI: 98.4 µM
A498 renal
  TGI: 66.2 µM
A549 NSCLC
  TGI: 98.6 µM
ACHN renal
  TGI: > 100 µM
CCRF-CEM leukemia
  TGI: 95.5 µM
COLO 205 colon
  TGI: 37.6 µM
DLD-1 colon
  TGI: > 100 µM
DMS 114 small cell lung
  TGI: > 100 µM
DMS 273 small cell lung
  TGI: 42.4 µM
EKVX NSCLC
  TGI: 53 µM
HCC-2998 colon
  TGI: 43.6 µM
HCT-116 colon
  TGI: 84.1 µM
HCT-15 colon
  TGI: > 100 µM
HL-60(TB) leukemia
  TGI: 90.7 µM
HOP-18 NSCLC
  TGI: 65.3 µM
HOP-62 NSCLC
  TGI: 98.6 µM
HOP-92 NSCLC
  TGI: 62.5 µM
HT29 colon
  TGI: 70.7 µM
IGROV1 ovarian
  TGI: > 100 µM
K-562 leukemia
  TGI: > 100 µM
KM12 colon
  TGI: > 100 µM
KM20L2 colon
  TGI: 59.8 µM
LOX IMVI melanoma
  TGI: 33.2 µM
LXFL 529 NSCLC
  TGI: > 100 µM
M14 melanoma
  TGI: > 100 µM
M19-MEL melanoma
  TGI: 83.6 µM
MALME-3M melanoma
  TGI: > 100 µM
MOLT-4 leukemia
  TGI: > 100 µM
NCI-H226 lung
  TGI: > 100 µM
NCI-H23 lung
  TGI: 63.6 µM
NCI-H460 lung
  TGI: 42.8 µM
NCI-H522 lung
  TGI: 65.6 µM
OVCAR-3 ovarian
  TGI: 63.9 µM
OVCAR-4 ovarian
  TGI: > 100 µM
OVCAR-8 ovarian
  TGI: 46.4 µM
RPMI-8226 leukemia
  TGI: 78.6 µM
RXF 393 renal
  TGI: 59 µM
SF-268 CNS
  TGI: 68.8 µM
SF-295 CNS
  TGI: > 100 µM
SF-539 CNS
  TGI: 54.3 µM
SK-MEL-2 melanoma
  TGI: 62.8 µM
SK-MEL-28 melanoma
  TGI: 77.6 µM
SK-OV-3 ovarian
  TGI: 59.4 µM
SN12C renal
  TGI: 64 µM
SNB-19 CNS
  TGI: > 100 µM
SNB-75 CNS
  TGI: 56.7 µM
SNB-78 CNS
  TGI: 82.5 µM
SR leukemia
  TGI: > 100 µM
SW-620 colon
  TGI: > 100 µM
TK-10 renal
  TGI: 60.4 µM
U251 CNS
  TGI: > 100 µM
UACC-257 melanoma
  TGI: > 100 µM
UACC-62 melanoma
  TGI: 1.98 µM
UO-31 renal
  TGI: > 100 µM
XF 498 CNS
  TGI: 83.4 µM
